{
  "source": "paper PMC5218480",
  "about": "(PLoS ONE, 2017)",
  "test_system": "MV-4-11 cells",
  "assay": "Gene expression microarray analysis (Affymetrix PrimeView) and GSEA",
  "assay_type": "cell-based, human",
  "parameters": "RFU PODN (11730768_x_at) / Fold change /veh PODN (11730768_x_at) / RFU LINC00158 (11744669_a_at) / Fold change /veh LINC00158 (11744669_a_at) / RFU DUSP10 (11751237_a_at) / Fold change /veh DUSP10 (11751237_a_at) / RFU ID3 (11757404_x_at) / Fold change /veh ID3 (11757404_x_at) / RFU PLEKHG5 (11737974_s_at) / Fold change /veh PLEKHG5 (11737974_s_at) / RFU LRRC4B (11730491_at) / Fold change /veh LRRC4B (11730491_at) / RFU GIMAP4 (11747438_a_at) / Fold change /veh GIMAP4 (11747438_a_at) / RFU KRT8 (11758183_x_at) / Fold change /veh KRT8 (11758183_x_at) / RFU CNN1 (11734310_a_at) / Fold change /veh CNN1 (11734310_a_at) / RFU VPS37D (11726825_at) / Fold change /veh VPS37D (11726825_at) / RFU C10orf10 (11716522_x_at) / Fold change /veh C10orf10 (11716522_x_at) / RFU KIR2DL2 /// KIR2DL4 /// KIR2DL5A /// KIR2DL5B /// KIR2DS1 /// KIR2DS2 /// KIR2DS3 /// KIR2DS4 /// KIR3DL3 /// KIR3DL3 /// KIR3DS1 (11738374_at) / Fold change /veh KIR2DL2 /// KIR2DL4 /// KIR2DL5A /// KIR2DL5B /// KIR2DS1 /// KIR2DS2 /// KIR2DS3 /// KIR2DS4 /// KIR3DL3 /// KIR3DL3 /// KIR3DS1 (11738374_at) / RFU C1QL1 (11718748_at) / Fold change /veh C1QL1 (11718748_at) / RFU TMPRSS4 (11747572_a_at) / Fold change /veh TMPRSS4 (11747572_a_at) / RFU HAMP (11756126_x_at) / Fold change /veh HAMP (11756126_x_at) / RFU RNFT2 (11725882_a_at) / Fold change /veh RNFT2 (11725882_a_at) / RFU NR4A2 (11747474_a_at) / Fold change /veh NR4A2 (11747474_a_at) / RFU ABCC12 (11746883_a_at) / Fold change /veh ABCC12 (11746883_a_at) / RFU TMEM136 (11760407_x_at) / Fold change /veh TMEM136 (11760407_x_at) / RFU CLDN22 /// WWC2 (11732394_at) / Fold change /veh CLDN22 /// WWC2 (11732394_at) / RFU HLA-DPB1 (11760878_x_at) / Fold change /veh HLA-DPB1 (11760878_x_at) / RFU SPINT1 (11716480_a_at) / Fold change /veh SPINT1 (11716480_a_at) / RFU GAP43 (11754022_s_at) / Fold change /veh GAP43 (11754022_s_at) / RFU A4GNT (11735810_at) / Fold change /veh A4GNT (11735810_at) / RFU PRB3 (11715151_x_at) / Fold change /veh PRB3 (11715151_x_at) / RFU TUBB4B (11761932_at) / Fold change /veh TUBB4B (11761932_at) / RFU CAPN14 (11732068_a_at) / Fold change /veh CAPN14 (11732068_a_at) / RFU TMCC2 (11721928_a_at) / Fold change /veh TMCC2 (11721928_a_at) / RFU IRGQ (11745062_a_at) / Fold change /veh IRGQ (11745062_a_at) / RFU FAM174B (11720279_a_at) / Fold change /veh FAM174B (11720279_a_at) / RFU TMPRSS4 (11748680_a_at) / Fold change /veh TMPRSS4 (11748680_a_at) / RFU FAM212B (11763350_a_at) / Fold change /veh FAM212B (11763350_a_at) / RFU PLEKHG5 (11743358_a_at) / Fold change /veh PLEKHG5 (11743358_a_at) / RFU ZSCAN30 (11745921_a_at) / Fold change /veh ZSCAN30 (11745921_a_at) / RFU CMKLR1 (11741424_a_at) / Fold change /veh CMKLR1 (11741424_a_at) / RFU LOC101060620 /// MAPK8IP1 (11723275_at) / Fold change /veh LOC101060620 /// MAPK8IP1 (11723275_at) / RFU SPTSSB (11747773_x_at) / Fold change /veh SPTSSB (11747773_x_at) / RFU PRSS12 (11739890_at) / Fold change /veh PRSS12 (11739890_at) / RFU BIN1 (11741810_x_at) / Fold change /veh BIN1 (11741810_x_at) / RFU WNT11 (11732464_a_at) / Fold change /veh WNT11 (11732464_a_at) / RFU C10orf10 (11716521_a_at) / Fold change /veh C10orf10 (11716521_a_at) / RFU C5orf56 (11738089_at) / Fold change /veh C5orf56 (11738089_at) / RFU CYB561 (11721691_x_at) / Fold change /veh CYB561 (11721691_x_at) / RFU ANKRD19P (11752326_a_at) / Fold change /veh ANKRD19P (11752326_a_at) / RFU OR2T12 /// OR2T33 /// OR2T8 (11738714_s_at) / Fold change /veh OR2T12 /// OR2T33 /// OR2T8 (11738714_s_at) / RFU VCAN (11748164_a_at) / Fold change /veh VCAN (11748164_a_at) / RFU JSRP1 (11732532_at) / Fold change /veh JSRP1 (11732532_at) / RFU KRTAP10-11 (11738290_x_at) / Fold change /veh KRTAP10-11 (11738290_x_at) / RFU MYO3A (11730013_a_at) / Fold change /veh MYO3A (11730013_a_at) / RFU EBF3 (11725865_a_at) / Fold change /veh EBF3 (11725865_a_at) / RFU CAMK2N1 (11719241_x_at) / Fold change /veh CAMK2N1 (11719241_x_at) / RFU C5orf56 (11738088_a_at) / Fold change /veh C5orf56 (11738088_a_at) / RFU OLFML3 (11715873_a_at) / Fold change /veh OLFML3 (11715873_a_at) / RFU LOC100653217 /// NTM (11731650_a_at) / Fold change /veh LOC100653217 /// NTM (11731650_a_at) / RFU MAPK11 (11762145_a_at) / Fold change /veh MAPK11 (11762145_a_at) / RFU FIZ1 (11724087_x_at) / Fold change /veh FIZ1 (11724087_x_at) / RFU OASL (11726364_x_at) / Fold change /veh OASL (11726364_x_at) / RFU SOX15 (11748057_x_at) / Fold change /veh SOX15 (11748057_x_at) / RFU CD79A (11719716_a_at) / Fold change /veh CD79A (11719716_a_at) / RFU HIST1H1D (11736915_at) / Fold change /veh HIST1H1D (11736915_at) / RFU CASKIN2 (11723855_a_at) / Fold change /veh CASKIN2 (11723855_a_at) / RFU LOC730098 (11760151_x_at) / Fold change /veh LOC730098 (11760151_x_at) / RFU OR4N2 (11742367_at) / Fold change /veh OR4N2 (11742367_at) / RFU PRRT2 (11749266_a_at) / Fold change /veh PRRT2 (11749266_a_at) / RFU SNX32 (11753110_a_at) / Fold change /veh SNX32 (11753110_a_at) / RFU CDHR5 (11726645_a_at) / Fold change /veh CDHR5 (11726645_a_at) / RFU RCAN1 (11760418_a_at) / Fold change /veh RCAN1 (11760418_a_at) / RFU FAM167A (11723789_a_at) / Fold change /veh FAM167A (11723789_a_at) / RFU FAM26E (11764081_at) / Fold change /veh FAM26E (11764081_at) / RFU ISYNA1 (11749810_s_at) / Fold change /veh ISYNA1 (11749810_s_at) / RFU ACY1 (11761880_at) / Fold change /veh ACY1 (11761880_at) / RFU 11764098_at / Fold change /veh 11764098_at / RFU SAMD14 (11745864_x_at) / Fold change /veh SAMD14 (11745864_x_at) / RFU NPB (11741838_a_at) / Fold change /veh NPB (11741838_a_at) / RFU TMPRSS6 (11731388_a_at) / Fold change /veh TMPRSS6 (11731388_a_at) / RFU KRTAP10-2 (11738614_at) / Fold change /veh KRTAP10-2 (11738614_at) / RFU ARHGAP8 /// PRR5-ARHGAP8 (11727945_x_at) / Fold change /veh ARHGAP8 /// PRR5-ARHGAP8 (11727945_x_at) / RFU KRTAP5-7 /// NADSYN1 (11734609_at) / Fold change /veh KRTAP5-7 /// NADSYN1 (11734609_at) / RFU RASL12 (11751679_a_at) / Fold change /veh RASL12 (11751679_a_at) / RFU CDKN2B (11736163_a_at) / Fold change /veh CDKN2B (11736163_a_at) / RFU PRF1 (11729649_at) / Fold change /veh PRF1 (11729649_at) / RFU, ZNF638 /// ZNF638-IT1 / Fold change vs veh, ZNF638 /// ZNF638-IT1 / RFU, PANK3 / Fold change vs veh, PANK3 / RFU, SH3YL1 / Fold change vs veh, SH3YL1 / RFU, ZEB2 / Fold change vs veh, ZEB2 / RFU, NRIP1 / Fold change vs veh, NRIP1 / RFU, PTTG1IP / Fold change vs veh, PTTG1IP / RFU, CAPN2 / Fold change vs veh, CAPN2 / RFU, MED14 / Fold change vs veh, MED14 / RFU, SNORA58 / Fold change vs veh, SNORA58 / RFU, C1orf63 / Fold change vs veh, C1orf63 / RFU, LRRFIP1 / Fold change vs veh, LRRFIP1 / RFU, NDUFAF7 / Fold change vs veh, NDUFAF7 / RFU, SLC12A2 / Fold change vs veh, SLC12A2 / RFU, IBTK / Fold change vs veh, IBTK / RFU, ESF1 / Fold change vs veh, ESF1 / Fold change vs veh, TMEM50B / RFU, TAOK1 / Fold change vs veh, TAOK1 / RFU, ACBD3 / Fold change vs veh, ACBD3 / RFU, TMA16 / Fold change vs veh, TMA16 / RFU, RWDD3 / Fold change vs veh, RWDD3 / RFU, BCAT1 / Fold change vs veh, BCAT1 / RFU, EDEM3 / Fold change vs veh, EDEM3 / RFU, TMEM33 / Fold change vs veh, TMEM33 / RFU, WDR75 / Fold change vs veh, WDR75 / RFU, AHCTF1 / Fold change vs veh, AHCTF1 / RFU, TFRC / Fold change vs veh, TFRC / RFU, ZDHHC17 / Fold change vs veh, ZDHHC17 / RFU, NOM1 / Fold change vs veh, NOM1 / RFU, ARL8B / Fold change vs veh, ARL8B / RFU, ZBTB11 / Fold change vs veh, ZBTB11 / RFU, TAMM41 / Fold change vs veh, TAMM41 / RFU, KIAA1704 /// LOC100996395 / Fold change vs veh, KIAA1704 /// LOC100996395 / RFU, ING1 / Fold change vs veh, ING1 / RFU, TRMT61B / Fold change vs veh, TRMT61B / RFU, FUBP3 / Fold change vs veh, FUBP3 / RFU, TP53 / Fold change vs veh, TP53 / RFU, TNKS2 / Fold change vs veh, TNKS2 / RFU, ZFP14 / Fold change vs veh, ZFP14 / RFU, ACTR2 / Fold change vs veh, ACTR2 / RFU, PPP3R1 / Fold change vs veh, PPP3R1 / RFU, PIK3R1 / Fold change vs veh, PIK3R1 / RFU, HNRNPA1 / Fold change vs veh, HNRNPA1 / RFU, RNF170 / Fold change vs veh, RNF170 / RFU, ZNF28 / Fold change vs veh, ZNF28 / RFU, RNGTT / Fold change vs veh, RNGTT / RFU, OGT / Fold change vs veh, OGT / RFU, BRD1 / Fold change vs veh, BRD1 / RFU, MARS / Fold change vs veh, MARS / RFU, ZNF655 / Fold change vs veh, ZNF655 / RFU, FAHD1 / Fold change vs veh, FAHD1 / RFU, BDP1 / Fold change vs veh, BDP1 / RFU, LRRCC1 / Fold change vs veh, LRRCC1 / RFU, ARID1A / Fold change vs veh, ARID1A / RFU, ZNF146 / Fold change vs veh, ZNF146 / RFU, ZNF330 / Fold change vs veh, ZNF330 / RFU, GPN3 / Fold change vs veh, GPN3 / RFU, C9orf123 / Fold change vs veh, C9orf123 / RFU, N4BP2L2 / Fold change vs veh, N4BP2L2 / RFU, ARFIP1 / Fold change vs veh, ARFIP1 / RFU, FAM179B / Fold change vs veh, FAM179B / RFU, BCL10 / Fold change vs veh, BCL10 / RFU, UHRF1BP1L / Fold change vs veh, UHRF1BP1L / RFU, BET1 / Fold change vs veh, BET1 / RFU, CNOT2 / Fold change vs veh, CNOT2 / RFU, ZNF268 / Fold change vs veh, ZNF268 / Fold change vs veh, ZNF507 / RFU, DGCR2 / Fold change vs veh, DGCR2 / RFU, WDSUB1 / Fold change vs veh, WDSUB1 / Fold change vs veh, HSP90B1 /// MIR3652 / RFU, ADSS / Fold change vs veh, ADSS / RFU, GK / Fold change vs veh, GK / RFU, ZNF148 / Fold change vs veh, ZNF148 / RFU, TAF9 / Fold change vs veh, TAF9 / RFU, SLC1A5 / Fold change vs veh, SLC1A5 / RFU, SLMO2 / Fold change vs veh, SLMO2 / RFU, ABCC4 / Fold change vs veh, ABCC4 / RFU, LOC101060439 /// RAP1B / Fold change vs veh, LOC101060439 /// RAP1B / RFU, RFX7 / Fold change vs veh, RFX7 / RFU, GTPBP10 / Fold change vs veh, GTPBP10 / RFU, CNEP1R1 / Fold change vs veh, CNEP1R1 / RFU, BIVM-ERCC5 /// ERCC5 / Fold change vs veh, BIVM-ERCC5 /// ERCC5 / RFU, ILF3 / Fold change vs veh, ILF3 / RFU 11762660_at / Fold change /veh 11762660_at / RFU VCAN (11757783_s_at) / Fold change /veh VCAN (11757783_s_at) / RFU DDX43 (11728927_at) / Fold change /veh DDX43 (11728927_at) / RFU KRT8 (11758188_x_at) / Fold change /veh KRT8 (11758188_x_at) / RFU NKD1 (11759106_at) / Fold change /veh NKD1 (11759106_at) / RFU SRD5A1 (11742802_a_at) / Fold change /veh SRD5A1 (11742802_a_at) / RFU TPSAB1 /// TPSB2 (11721975_s_at) / Fold change /veh TPSAB1 /// TPSB2 (11721975_s_at) / RFU GSTM3 (11746129_a_at) / Fold change /veh GSTM3 (11746129_a_at) / RFU IL23R (11737362_x_at) / Fold change /veh IL23R (11737362_x_at) / RFU TMEM51 (11727254_a_at) / Fold change /veh TMEM51 (11727254_a_at) / RFU PIWIL2 (11732686_x_at) / Fold change /veh PIWIL2 (11732686_x_at) / RFU ORM1 (11744905_x_at) / Fold change /veh ORM1 (11744905_x_at) / RFU CCDC152 (11743942_at) / Fold change /veh CCDC152 (11743942_at) / RFU ECM1 (11717891_a_at) / Fold change /veh ECM1 (11717891_a_at) / RFU IL23R (11748794_a_at) / Fold change /veh IL23R (11748794_a_at) / RFU TNFAIP8L3 (11732012_x_at) / Fold change /veh TNFAIP8L3 (11732012_x_at) / RFU MBOAT4 (11741988_at) / Fold change /veh MBOAT4 (11741988_at) / RFU 11764193_at / Fold change /veh 11764193_at / RFU TMEM53 (11763286_at) / Fold change /veh TMEM53 (11763286_at) / RFU MAGEB2 (11727129_at) / Fold change /veh MAGEB2 (11727129_at) / RFU TMEM200A (11744735_a_at) / Fold change /veh TMEM200A (11744735_a_at) / RFU CCDC152 (11751479_a_at) / Fold change /veh CCDC152 (11751479_a_at) / RFU FAM211A (11726209_a_at) / Fold change /veh FAM211A (11726209_a_at) / RFU RGS16 (11746705_a_at) / Fold change /veh RGS16 (11746705_a_at) / RFU VCAN (11755009_s_at) / Fold change /veh VCAN (11755009_s_at) / RFU RHOB (11743442_s_at) / Fold change /veh RHOB (11743442_s_at) / RFU RGS16 (11720943_a_at) / Fold change /veh RGS16 (11720943_a_at) / RFU RGS16 (11720944_at) / Fold change /veh RGS16 (11720944_at) / RFU, VPS4B / Fold change vs veh, VPS4B / RFU, CREB1 / Fold change vs veh, CREB1 / RFU, DNAJC13 / Fold change vs veh, DNAJC13 / RFU, GNAQ / Fold change vs veh, GNAQ / RFU, CDK5R1 / Fold change vs veh, CDK5R1 / RFU, ZRANB3 / Fold change vs veh, ZRANB3 / RFU, CUL4A / Fold change vs veh, CUL4A / RFU, CCNY / Fold change vs veh, CCNY / RFU, UFL1 / Fold change vs veh, UFL1 / RFU, COG3 / Fold change vs veh, COG3 / RFU, DIAPH2 / Fold change vs veh, DIAPH2 / RFU, SKA2 / Fold change vs veh, SKA2 / RFU, AFF3 / Fold change vs veh, AFF3 / RFU, LMF1 / Fold change vs veh, LMF1 / RFU, IPO11 / Fold change vs veh, IPO11 / RFU, DFFB / Fold change vs veh, DFFB / RFU, FOXP1 / Fold change vs veh, FOXP1 / RFU, CARD8 / Fold change vs veh, CARD8 / RFU, STRN3 / Fold change vs veh, STRN3 / RFU, ADK / Fold change vs veh, ADK / RFU, RASSF2 / Fold change vs veh, RASSF2 / RFU, WIPF1 / Fold change vs veh, WIPF1 / RFU, LARP1B / Fold change vs veh, LARP1B / RFU, RASA1 / Fold change vs veh, RASA1 / RFU, RB1 / Fold change vs veh, RB1 / RFU, PPFIA1 / Fold change vs veh, PPFIA1 / RFU, MAT2A / Fold change vs veh, MAT2A / RFU, CCT5 / Fold change vs veh, CCT5 / RFU, WDR92 / Fold change vs veh, WDR92 / RFU, CUX1 / Fold change vs veh, CUX1 / RFU, TTC7A / Fold change vs veh, TTC7A / RFU, TMEM135 / Fold change vs veh, TMEM135 / RFU, DEPTOR / Fold change vs veh, DEPTOR / RFU, CPM / Fold change vs veh, CPM / RFU, DNAJB6 / Fold change vs veh, DNAJB6 / RFU, CACNA2D3 / Fold change vs veh, CACNA2D3 / RFU, DTX4 / Fold change vs veh, DTX4 / RFU, TFCP2 / Fold change vs veh, TFCP2 / RFU, GMCL1 /// GMCL1P1 / Fold change vs veh, GMCL1 /// GMCL1P1 / RFU, AEBP2 / Fold change vs veh, AEBP2 / RFU, SNHG1 /// SNORD22 /// SNORD25 /// SNORD26 /// SNORD27 /// SNORD28 /// SNORD29 /// SNORD31 / Fold change vs veh, SNHG1 /// SNORD22 /// SNORD25 /// SNORD26 /// SNORD27 /// SNORD28 /// SNORD29 /// SNORD31 / Fold change (Aza/veh), C12orf56 (ProbeSet 11735607_a_at) / Fold change (ACY-1035/veh), C12orf56 (ProbeSet 11735607_a_at) / Fold change (Aza/veh), FGFR1OP (ProbeSet 11751329_s_at) / Fold change (ACY-1035/veh), FGFR1OP (ProbeSet 11751329_s_at) / Fold change (Aza/veh), VPS36 (ProbeSet 11739960_a_at) / Fold change (ACY-1035/veh), VPS36 (ProbeSet 11739960_a_at) / RFU SYPL1 (11715823_x_at) / Fold change /veh SYPL1 (11715823_x_at) / RFU IGFBP7 (11715501_s_at) / Fold change /veh IGFBP7 (11715501_s_at) / RFU REEP3 (11722064_at) / Fold change /veh REEP3 (11722064_at) / RFU IGLL1 (11728026_x_at) / Fold change /veh IGLL1 (11728026_x_at): dose or concentration left out as unconfirmed",
  "details": "ProbeSet 11721969_s_at; LIST B",
  "data": [
    {"smiles": "Nc1ncn([C@@H]2O[C@H](CO)[C@@H](O)[C@H]2O)c(=O)n1", "note": "[azacitidine]", "values": [
      {"measurement": "Fold change vs veh, BDP1", "result": 0.86}
    ]}
  ]
}
